Data set [1] concerns vaccinia virus (strain Copenhagen). The data set is described as follows: microbe, parasite or virus in culture. Conditions: Orthopoxvirus vaccinia, Vero, 96 h.
A short description of data set [2]: in vitro. Conditions: human.
For data set [3], the system named is Marburg pseudovirus (GP MARV). The data set is described as follows: microbe, parasite or virus in culture. Conditions: 24 h.
Data set [4] is described as follows: in vitro. Conditions: African green monkey.
The subject of data set [5] is Marburg pseudovirus (GP MARV).
Data set [6] relates to vaccinia virus (strain Copenhagen).

23 compounds from article PMC9331314, “Synthesis and Antiviral Properties of Camphor-Derived Iminothiazolidine-4-Ones and 2,3-Dihydrothiazoles” (Molecules, 2022) can be followed below.

Like-named read-outs stand apart in the source and are kept apart here.

In general, IC50 refers to the concentration at which inhibition is half-maximal.

Take `C=CCNC(=S)N/N=C1\C[C@@H]2CC[C@@]1(C)C2(C)C` [2′b, (E)-N-allyl-2-((1S,4S)-1,7,7-trimethylbicyclo[2.2.1]heptan-2-ylidene)hydrazinecarbothioamide]: the IC50 was found to be 12 ± 2.9 µM in data set [1] and 3.8 ± 1.9 µM in data set [3]. The figures for the CC50 in “in vitro [2]” and in the data set “in vitro [4]” were 56.5 ± 8.2 µM and 35 ± 4.6 µM, respectively. Further, the “SI (CC50/IC50)” value in data set [5] was determined as 15; in data set [6], 3.
Consider `CCNC(=S)N/N=C1\C[C@@H]2CC[C@@]1(C)C2(C)C` [2′c, (E)-N-ethyl-2-((1S,4S)-1,7,7-trimethylbicyclo[2.2.1]heptan-2-ylidene)hydrazinecarbothioamide], for which the IC50 in data set [1] was found to be 14 ± 2.6 µM; in data set [3], 9.1 ± 3.9 µM. The CC50 in “in vitro [2]” stood at 530 ± 35.4 µM; in “in vitro [4]”, 45 ± 6.6 µM. Moreover, the figures for the “SI (CC50/IC50)” value in data set [5] and in data set [6] were 16 and 3, respectively.
Turning to `CC1(C)[C@H]2CC[C@]1(C)/C(=N\N=C1\SCC(=O)N1c1ccccc1)C2` [3′a, (Z)-3-phenyl-2-((E)-((1S,4S)-1,7,7-trimethylbicyclo[2.2.1]heptan-2-ylidene)hydrazono)thiazolidin-4-one], the 50% inhibitory concentration (IC50) in data set [1] was found to be 75 ± 13.7 µM. The same compound yielded a CC50 in the data set “in vitro [4]” of 290 ± 36.9 µM. Moreover, in data set [6], the “SI (CC50/IC50)” value was determined as 4.
With `C=CCN1C(=O)CS/C1=N/N=C1/C[C@@H]2CC[C@@]1(C)C2(C)C` [3′b, (Z)-3-allyl-2-((E)-((1S,4S)-1,7,7-trimethylbicyclo[2.2.1]heptan-2-ylidene)hydrazono)thiazolidin-4-one], the IC50 in data set [1] is 66 ± 12.9 µM; in data set [3], 45.8 ± 6.5 µM. The CC50 in “in vitro [2]” worked out at 121 ± 6.5 µM; in the data set “in vitro [4]”, 160 ± 20.8 µM. The results for the “SI (CC50/IC50)” value in data set [5] and in data set [6] were 3 and 2, respectively.
Take `CCN1C(=O)CS/C1=N/N=C1/C[C@@H]2CC[C@@]1(C)C2(C)C` [3′c, (Z)-3-ethyl-2-((E)-((1S,4S)-1,7,7-trimethylbicyclo[2.2.1]heptan-2-ylidene)hydrazono)thiazolidin-4-one]: the values for the IC50 in data set [1] and in data set [3] were 64 ± 12.3 µM and 68.2 ± 20.4 µM, respectively. Moreover, the CC50 in the data set “in vitro [2]” was 170 ± 40.9 µM; in “in vitro [4]”, 220 ± 28.6 µM. The “SI (CC50/IC50)” value in data set [5] was 3; in data set [6], 4.
As for `CN1C(=O)CS/C1=N/N=C1/C[C@@H]2CC[C@@]1(C)C2(C)C` [3′d, (Z)-3-methyl-2-((E)-((1S,4S)-1,7,7-trimethylbicyclo[2.2.1]heptan-2-ylidene)hydrazono)thiazolidin-4-one], the CC50 in the data set “in vitro [2]” is 182 ± 14.3 µM; in “in vitro [4]” it was 250 ± 31.4 µM. Moreover, the IC50 in data set [3] came out at 28.6 ± 10.7 µM. Further, in data set [5], the “SI (CC50/IC50)” value is listed as 6.
In turn, `Nc1ccn(C[C@@H](CO)OCP(=O)(O)O)c(=O)n1` [Cidofovir, reference compound] displayed an IC50 in data set [1] of 40.1 ± 2.8 µM. In “in vitro [4]”, this compound displayed a CC50 of 475 ± 74.9 µM. Further, the “SI (CC50/IC50)” value in data set [6] came out at 12.
`C=CCN1C(=O)CS/C1=N/N=C1/C[C@H]2CC[C@]1(C)C2(C)C` [Compound 3b, (Z)-3-allyl-2-((E)-((1R,4R)-1,7,7-trimethylbicyclo[2.2.1]heptan-2-ylidene)hydrazono)thiazolidin-4-one]: the IC50 was found to be 72 ± 12.2 µM in data set [1] and 22.9 ± 0.7 µM in data set [3]. The figures for the CC50 in the data set “in vitro [2]” and in “in vitro [4]” were 108 ± 6.5 µM and 99 ± 11.8 µM, respectively. In data set [5], the “SI (CC50/IC50)” value was found to be 5.
As to `CCN1C(=O)CS/C1=N/N=C1/C[C@H]2CC[C@]1(C)C2(C)C` [Compound 3c, (Z)-3-ethyl-2-((E)-((1R,4R)-1,7,7-trimethylbicyclo[2.2.1]heptan-2-ylidene)hydrazono)thiazolidin-4-one], the IC50 in data set [1] stood at 24 ± 3.9 µM; in data set [3] it was 30.7 ± 6.8 µM. The results for the CC50 in the data set “in vitro [2]” and in “in vitro [4]” were 54.1 ± 9.2 µM and 87 ± 10.1 µM, respectively. The “SI (CC50/IC50)” value in data set [5] worked out at 2; in data set [6], 4.
Turning to `CN1C(=O)CS/C1=N/N=C1/C[C@H]2CC[C@]1(C)C2(C)C` [Compound 3d, (Z)-3-methyl-2-((E)-((1R,4R)-1,7,7-trimethylbicyclo[2.2.1]heptan-2-ylidene)hydrazono)thiazolidin-4-one], the IC50 in data set [1] is 100 ± 17.6 µM. Further, in “in vitro [4]”, the CC50 is 310 ± 41.3 µM. Also, the “SI (CC50/IC50)” value in data set [6] worked out at 3.
For the compound `CC1(C)S/C(=N/N=C2/C[C@H]3CC[C@]2(C)C3(C)C)N(c2ccccc2)C1=O` [Compound 4a, (Z)-5,5-dimethyl-3-phenyl-2-((E)-((1R,4R)-1,7,7-trimethylbicyclo[2.2.1]heptan-2-ylidene)hydrazono)thiazolidin-4-one], the figures for the IC50 in data set [1] and in data set [3] were 32.5 ± 2.8 µM and 94.7 ± 8.1 µM, respectively. Moreover, the CC50 in “in vitro [2]” was determined as 325 ± 36.1 µM; in “in vitro [4]”, 270 ± 35.2 µM. Further, the “SI (CC50/IC50)” value in data set [5] worked out at 3; in data set [6], 8.
Regarding `CCN1C(=O)C(C)(C)SC1=NN=C1CC2CCC1(C)C2(C)C` [Compound 4c, ((Z)-3-ethyl-5,5-dimethyl-2-((E)-((1R,4R)-1,7,7-trimethylbicyclo[2.2.1]heptan-2-ylidene)hydrazono)thiazolidin-4-one], the figures for the CC50 in the data set “in vitro [2]” and in the data set “in vitro [4]” were 778 ± 82.8 µM and 290 ± 34.9 µM, respectively. This compound also returned an IC50 in data set [3] of 171 ± 46.7 µM. In addition, the “SI (CC50/IC50)” value in data set [5] was determined as 5.
As for `C=CCn1c(-c2ccc(Cl)cc2)cs/c1=N/N=C1\C[C@H]2CC[C@]1(C)C2(C)C` [Compound 5b, (E)-3-allyl-4-(4-chlorophenyl)-2-((E)-((1R,4R)-1,7,7-trimethylbicyclo[2.2.1]heptan-2-ylidene)hydrazono)-2,3-dihydrothiazole], the IC50 was 2.5 ± 0.3 µM in data set [1] and 30 ± 10 µM in data set [3]. For the same compound, the CC50 came to 80 ± 20 µM in “in vitro [2]” and 19 ± 2.8 µM in “in vitro [4]”. Besides, the “SI (CC50/IC50)” value is listed as 3 in data set [5] and 8 in data set [6].
Consider `CCn1c(-c2ccc(Cl)cc2)cs/c1=N/N=C1\C[C@H]2CC[C@]1(C)C2(C)C` [Compound 5c, (E)-4-(4-chlorophenyl)-3-ethyl-2-((E)-((1R,4R)-1,7,7-trimethylbicyclo[2.2.1]heptan-2-ylidene)hydrazono)-2,3-dihydrothiazole], for which the half-inhibitory concentration (IC50) in data set [1] turned out to be 12 ± 1.5 µM; in data set [3], 25.8 ± 5.2 µM. In addition, the CC50 was 51.6 ± 15.5 µM in the data set “in vitro [2]” and 70 ± 8.9 µM in the data set “in vitro [4]”. Besides, the “SI (CC50/IC50)” value in data set [5] amounted to 2; in data set [6], 6.
In the case of `Cc1ccc(-c2cs/c(=N/N=C3\C[C@H]4CC[C@]3(C)C4(C)C)n2-c2ccccc2)cc1` [Compound 6a, (E)-3-phenyl-4-p-tolyl-2-((E)-((1R,4R)-1,7,7-trimethylbicyclo[2.2.1]heptan-2-ylidene)hydrazono)-2,3-dihydrothiazole], the values for the CC50 in “in vitro [2]” and in the data set “in vitro [4]” were 135 ± 19.2 µM and 98 ± 11.6 µM, respectively. In addition, it took 60.2 ± 14.4 µM to reach half-maximal inhibition in data set [3] (IC50). Besides, the “SI (CC50/IC50)” value in data set [5] was found to be 2.
Consider `C=CCn1c(-c2ccc(C)cc2)cs/c1=N/N=C1\C[C@H]2CC[C@]1(C)C2(C)C` [Compound 6b, (E)-3-allyl-4-p-tolyl-2-((E)-((1R,4R)-1,7,7-trimethylbicyclo[2.2.1]heptan-2-ylidene)hydrazono)-2,3-dihydrothiazole], for which the IC50 came to 4 ± 0.6 µM in data set [1] and 5.3 ± 2.6 µM in data set [3]. In addition, the CC50 stood at 39.5 ± 4.8 µM in the data set “in vitro [2]” and 12 ± 2.1 µM in “in vitro [4]”. The “SI (CC50/IC50)” value in data set [5] stood at 7; in data set [6], 3.
In turn, `CCn1c(-c2ccc(C)cc2)cs/c1=N/N=C1\C[C@H]2CC[C@]1(C)C2(C)C` [Compound 6c, (E)-3-ethyl-4-p-tolyl-2-((E)-((1R,4R)-1,7,7-trimethylbicyclo[2.2.1]heptan-2-ylidene)hydrazono)-2,3-dihydrothiazole] yielded a CC50 in the data set “in vitro [4]” of 15 ± 2.9 µM.
In the case of `Cc1ccc(-c2cs/c(=N/N=C3\C[C@H]4CC[C@]3(C)C4(C)C)n2C)cc1` [Compound 6d, (E)-3-methyl-4-p-tolyl-2-((E)-((1R,4R)-1,7,7-trimethylbicyclo[2.2.1]heptan-2-ylidene)hydrazono)-2,3-dihydrothiazole], the IC50 was determined as 5.1 ± 0.7 µM in data set [1] and 28.3 ± 8.5 µM in data set [3]. Moreover, the results for the CC50 in the data set “in vitro [2]” and in the data set “in vitro [4]” were 79.2 ± 8.5 µM and 17 ± 3.1 µM, respectively. Besides, the “SI (CC50/IC50)” value in data set [5] and in data set [6] was 3 each time.
With `COc1ccc(-c2cs/c(=N/N=C3\C[C@H]4CC[C@]3(C)C4(C)C)n2-c2ccccc2)cc1` [Compound 7a, (E)-4-(4-methoxyphenyl)-3-phenyl-2-((E)-((1R,4R)-1,7,7-trimethylbicyclo[2.2.1]heptan-2-ylidene)hydrazono)-2,3-dihydrothiazole], the figures for the CC50 in the data set “in vitro [2]” and in “in vitro [4]” were 973 ± 61.6 µM and 232 ± 29.6 µM, respectively. For the same compound, the half-maximal inhibitory concentration (IC50) in data set [3] came to 127 ± 23.2 µM. The “SI (CC50/IC50)” value in data set [5] came to 8.
Regarding `C=CCn1c(-c2ccc(OC)cc2)cs/c1=N/N=C1\C[C@H]2CC[C@]1(C)C2(C)C` [Compound 7b, (E)-3-allyl-4-(4-methoxyphenyl)-2-((E)-((1R,4R)-1,7,7-trimethylbicyclo[2.2.1]heptan-2-ylidene)hydrazono)-2,3-dihydrothiazole], the CC50 was found to be 37.9 ± 8.3 µM in the data set “in vitro [2]” and 200 ± 23.1 µM in the data set “in vitro [4]”. This compound yielded an IC50 in data set [3] of 13.9 ± 2.5 µM. Further, in data set [5], the “SI (CC50/IC50)” value is 3.
For `CCn1c(-c2ccc(OC)cc2)cs/c1=N/N=C1\C[C@H]2CC[C@]1(C)C2(C)C` [Compound 7c, (E)-3-ethyl-4-(4-methoxyphenyl)-2-((E)-((1R,4R)-1,7,7-trimethylbicyclo[2.2.1]heptan-2-ylidene)hydrazono)-2,3-dihydrothiazole], the CC50 in “in vitro [2]” was 117 ± 10.4 µM. In data set [3], this compound showed an IC50 of 13 ± 5.2 µM. For the same compound, the “SI (CC50/IC50)” value in data set [5] is on record as 9.
With `COc1ccc(-c2cs/c(=N/N=C3\C[C@H]4CC[C@]3(C)C4(C)C)n2C)cc1` [Compound 7d, (E)-4-(4-methoxyphenyl)-3-methyl-2-((E)-((1R,4R)-1,7,7-trimethylbicyclo[2.2.1]heptan-2-ylidene)hydrazono)-2,3-dihydrothiazole], the CC50 in the data set “in vitro [2]” was found to be 97.4 ± 21.6 µM. In data set [5], the IC50 is 27.1 ± 8.1 µM and the “SI (CC50/IC50)” value is reported as 4.
In turn, `CN[C@H]1CC[C@@H](c2ccc(Cl)c(Cl)c2)c2ccccc21` [Sertraline, reference compound] gave a CC50 in “in vitro [2]” of 408 ± 35.9 µM.
